Source: US10647680B2, “Urea compound, preparation method therefor and medical use thereof” (Ancureall Pharmaceutical (Shanghai) Co., Ltd., priority 2016, dated 2020)

Target: T1, CYP2D6 (Homo sapiens, UniProt P10635)
T1 construct: human liver microsomes (BD Gentest) (0.5 mg/mL); tissue BD Gentest; host or cells: human liver microsomes
Test: P450 enzyme inhibition, CYP2D6
Format: in vitro ADME
Conditions: human liver microsomes
Protocol: Eight cytochrome p450 enzyme inhibition reactions of human liver microsomes were performed using compound 77 of the present invention as a representative example.
The main reaction systems and processes: in 37° C. water bath, the test compounds (7 concentrations, 0, 0.25, 0.5, 5, 10, 25, and 50 uM; the final methanol concentration was 1% in the system), human liver microsomes (BD Gentest) (0.5 mg/mL) and reducing coenzyme II (Roche 10621706001) (1 mg/mL) and the corresponding cytochrome p450 enzyme probe substrate were co-incubated for 5 to 20 minutes. Among them, (1) the probe substrate for CYP1A2 was Phenacetin ([…]) (Sigma), and the selective inhibitor alpha-naphthoflavone (2 uM) (Sigma) was for parallel detection as positive control, and they were incubated for 20 minutes. (2) The probe substrate for CYP2b6 was Bupropion (40 uM) (Sigma) and the selective inhibitor Ticlopidine (10 uM) (Sigma) was for parallel detection as positive control, and they were incubated for 20 minutes. (3) The probe substrate of CYP2C8 was Amodiaquine (1 uM) (Sigma), and the selective inhibitor Montelukast (10 uM) (Sigma) was for parallel detection as positive control, and they were incubated for 20 minutes. (4) The probe substrate for CYP2C9 was Diclofenac (2.5 uM) (Sigma), and the selective inhibitor Sulphaphenazole (10 uM) (Sigma) was for parallel detection as positive control, and they were incubated for 20 minutes. (5) The probe substrate for CYP2C19 was Mephenytoin (40 uM) (Sigma), and the selective inhibitor Ticlopidine (10 uM) (Sigma) was for parallel detection as positive control, and they were incubated for 20 minutes. (6) The probe substrate for CYP2D6 was Dextromethorphan (5 uM) (Sigma), and the selective inhibitor Quinidine (10 uM) (Sigma) was for parallel detection as positive control, and they were incubated for 20 minutes. (7) The probe substrates for CYP3A4-T and CYP3A4-M were Testosterone (5 uM) (Sigma) and Midazolam (5 uM) (Sigma), respectively, and the selective inhibitor was Ketoconazole (1 uM) (Sigma), they were detected in parallel as positive control, and incubated for 5 minutes. The reaction system was quenched by adding methanol containing the corresponding internal standard. The internal standard compound was Tolbutamide (Sigma). The concentration of the corresponding metabolites was determined by LC/MS/MS. For the data analysis, the decrease in peak area of the metabolite of the sample after addition of compound 77 relative to the peak area of the metabolite of the solvent control sample was used to calculate the IC50 (concentration of the test substance at 50% inhibition). The percentages of peak areas of metabolites of CYP1A2, CYP2B6, CYP2C8, CYP2C9, 15CYP2C19, CYP2D6, CYP3A4-T, and CYP3A4-M probe substrates after addition of different concentrations of compound 77 and selective inhibitors relative to the solvent control peak areas were shown in the Table 7.

T1 sequence (P10635 whole entry): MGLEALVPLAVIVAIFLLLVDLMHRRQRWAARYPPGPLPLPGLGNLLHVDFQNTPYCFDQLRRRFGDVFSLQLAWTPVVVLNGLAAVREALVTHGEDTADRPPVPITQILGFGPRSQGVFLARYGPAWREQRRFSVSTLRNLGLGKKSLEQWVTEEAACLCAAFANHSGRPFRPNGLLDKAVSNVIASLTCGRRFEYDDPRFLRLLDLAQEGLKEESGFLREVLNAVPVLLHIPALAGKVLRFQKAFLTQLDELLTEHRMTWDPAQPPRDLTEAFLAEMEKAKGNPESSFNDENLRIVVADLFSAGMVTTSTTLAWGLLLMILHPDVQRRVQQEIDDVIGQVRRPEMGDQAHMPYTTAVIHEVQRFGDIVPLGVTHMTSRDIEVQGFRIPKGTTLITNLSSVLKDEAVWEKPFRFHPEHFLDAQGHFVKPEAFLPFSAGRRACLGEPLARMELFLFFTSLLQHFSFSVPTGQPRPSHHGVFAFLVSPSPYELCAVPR

Structure (SMILES): COCCOc1ccc2c(c1)ncn2-c1ccc(NC(=O)Nc2cc(C(C)(C)C)n[nH]2)cc1 [Compound 77, 1-(5-tert-butyl-2H-pyrazol-3-yl)-3-{4-[5-(2-methoxyl-ethoxyl)-benzimidazol-1-yl]-phenyl}-urea]
- CYP2D6 Remaining % (Concentration 0.25 uM): 105.1%
- CYP2D6 Remaining % (Concentration 0.5 uM): 97.7%
- CYP2D6 Remaining % (Concentration 5 uM): 98.8%
- CYP2D6 Remaining % (Concentration 10 uM): 96.3%
- CYP2D6 Remaining % (Concentration 25 uM): 90.3%
- CYP2D6 Remaining % (Concentration 50 uM): 64.9%
- IC50 (read-out: half-inhibitory concentration (IC50) of CYP2D6): > 50 µM
